Assay results published in ChEMBL document CHEMBL5465560, “Selectivity Literature for EUbOPEN Chemogenomic Library” (2024).

What was measured:
[1] = target: Serine/threonine-protein kinase Chk2 (Homo sapiens) (UniProt O96017); test: Selectivity interaction (Millipore kinase profiler) EUB0000124b CHEK2; settings: at 10 µM
[2] = target: Receptor tyrosine-protein kinase erbB-3 (Homo sapiens) (UniProt P21860); test: Selectivity interaction (KinomeScan (DiscoverX)) EUB0000229b ERBB3; settings: at 10 µM
Sequence of Receptor tyrosine-protein kinase erbB-3 (Homo sapiens) (P21860 whole entry): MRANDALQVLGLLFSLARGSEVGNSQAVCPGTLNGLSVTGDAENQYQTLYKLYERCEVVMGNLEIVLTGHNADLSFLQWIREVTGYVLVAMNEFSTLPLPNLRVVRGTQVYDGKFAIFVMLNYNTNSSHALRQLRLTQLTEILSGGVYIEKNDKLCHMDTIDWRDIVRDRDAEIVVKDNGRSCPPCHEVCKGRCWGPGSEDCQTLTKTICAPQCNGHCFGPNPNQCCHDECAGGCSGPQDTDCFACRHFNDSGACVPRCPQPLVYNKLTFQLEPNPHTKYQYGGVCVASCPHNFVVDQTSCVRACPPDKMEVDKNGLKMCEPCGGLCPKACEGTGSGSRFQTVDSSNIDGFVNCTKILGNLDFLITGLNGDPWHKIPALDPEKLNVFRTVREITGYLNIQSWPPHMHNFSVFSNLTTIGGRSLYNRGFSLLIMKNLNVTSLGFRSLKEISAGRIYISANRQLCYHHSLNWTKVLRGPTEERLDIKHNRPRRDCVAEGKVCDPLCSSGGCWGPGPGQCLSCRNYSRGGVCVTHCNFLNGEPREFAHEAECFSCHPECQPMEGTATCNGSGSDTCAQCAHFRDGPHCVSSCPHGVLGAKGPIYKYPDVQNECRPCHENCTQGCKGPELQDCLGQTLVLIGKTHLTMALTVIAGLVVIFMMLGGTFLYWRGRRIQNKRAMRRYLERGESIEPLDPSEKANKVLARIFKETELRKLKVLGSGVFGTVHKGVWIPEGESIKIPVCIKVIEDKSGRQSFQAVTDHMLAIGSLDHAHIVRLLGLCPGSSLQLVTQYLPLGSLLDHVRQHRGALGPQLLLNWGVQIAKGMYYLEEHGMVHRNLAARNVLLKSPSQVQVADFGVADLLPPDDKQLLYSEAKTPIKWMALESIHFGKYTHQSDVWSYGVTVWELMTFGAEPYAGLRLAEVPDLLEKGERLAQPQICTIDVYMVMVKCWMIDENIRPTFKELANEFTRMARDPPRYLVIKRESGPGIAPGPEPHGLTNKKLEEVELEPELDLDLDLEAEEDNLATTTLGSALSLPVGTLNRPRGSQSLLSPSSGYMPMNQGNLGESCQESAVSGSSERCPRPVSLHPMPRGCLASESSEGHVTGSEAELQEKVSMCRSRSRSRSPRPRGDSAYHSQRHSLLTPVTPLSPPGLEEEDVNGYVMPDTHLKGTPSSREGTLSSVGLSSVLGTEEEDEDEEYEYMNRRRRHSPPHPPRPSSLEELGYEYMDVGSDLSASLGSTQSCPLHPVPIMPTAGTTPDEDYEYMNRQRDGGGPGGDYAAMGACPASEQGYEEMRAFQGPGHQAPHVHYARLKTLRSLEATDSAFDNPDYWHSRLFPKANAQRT

[3] = target: BDNF/NT-3 growth factors receptor (Homo sapiens) (UniProt Q16620); test: Selectivity interaction (KinomeScan (DiscoverX)) EUB0000229b NTRK2; settings: at 10 µM
[4] = system: Tyrosine-protein kinase ABL1 (Homo sapiens), P00519 [F317I]; test: Selectivity interaction (KinomeScan (DiscoverX)) EUB0001079a ABL1; settings: at 1 µM
[5] = target: Calcium/calmodulin-dependent protein kinase type 1D (Homo sapiens) (UniProt Q8IU85); test: Selectivity interaction (ActivX KiNativ screen (kinase selectivity in THP-1 cell lysates)) EUB0000639a CAMK1D; type: subcellular; settings: lysate, at 5 µM
[6] = target: Tyrosine-protein kinase SYK (Homo sapiens, UniProt P43405); test: Selectivity interaction (Kinase panel (Invitrogen)) EUB0000639a SYK; settings: at 200 nM
[7] = target: T1, Serine/threonine-protein kinase D2 (Homo sapiens) (UniProt Q9BZL6); test: Selectivity interaction (KinomeScan (DiscoverX)) EUB0000595a PRKD2; settings: at 10 µM
T1 sequence (whole entry): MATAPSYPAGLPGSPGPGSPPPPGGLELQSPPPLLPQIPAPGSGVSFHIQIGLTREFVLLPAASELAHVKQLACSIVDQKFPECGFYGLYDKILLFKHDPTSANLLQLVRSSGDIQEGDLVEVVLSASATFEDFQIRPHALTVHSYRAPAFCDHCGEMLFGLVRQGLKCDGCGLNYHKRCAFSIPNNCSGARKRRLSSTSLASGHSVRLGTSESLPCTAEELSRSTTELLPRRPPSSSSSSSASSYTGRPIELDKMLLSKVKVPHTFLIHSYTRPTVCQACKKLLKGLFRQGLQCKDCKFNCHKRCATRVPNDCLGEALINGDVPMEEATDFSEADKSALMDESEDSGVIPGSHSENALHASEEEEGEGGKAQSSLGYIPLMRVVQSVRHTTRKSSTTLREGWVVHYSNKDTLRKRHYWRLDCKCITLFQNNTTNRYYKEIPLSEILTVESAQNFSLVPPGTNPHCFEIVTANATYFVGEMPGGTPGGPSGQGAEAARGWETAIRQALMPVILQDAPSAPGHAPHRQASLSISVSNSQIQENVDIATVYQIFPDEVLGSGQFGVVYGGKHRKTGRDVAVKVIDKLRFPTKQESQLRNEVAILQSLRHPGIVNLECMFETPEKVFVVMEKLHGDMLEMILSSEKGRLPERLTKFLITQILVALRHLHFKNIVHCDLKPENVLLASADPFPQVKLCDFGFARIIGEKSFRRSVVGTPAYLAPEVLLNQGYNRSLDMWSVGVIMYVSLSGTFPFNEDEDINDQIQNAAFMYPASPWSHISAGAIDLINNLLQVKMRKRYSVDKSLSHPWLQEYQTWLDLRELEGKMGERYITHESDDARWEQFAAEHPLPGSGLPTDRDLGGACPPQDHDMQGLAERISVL

[8] = target: Ephrin type-A receptor 2 (Homo sapiens) (UniProt P29317); test: Selectivity interaction (KinomeScan (DiscoverX)) EUB0000045b EPHA2
Sequence of Ephrin type-A receptor 2 (Homo sapiens) (P29317 whole entry): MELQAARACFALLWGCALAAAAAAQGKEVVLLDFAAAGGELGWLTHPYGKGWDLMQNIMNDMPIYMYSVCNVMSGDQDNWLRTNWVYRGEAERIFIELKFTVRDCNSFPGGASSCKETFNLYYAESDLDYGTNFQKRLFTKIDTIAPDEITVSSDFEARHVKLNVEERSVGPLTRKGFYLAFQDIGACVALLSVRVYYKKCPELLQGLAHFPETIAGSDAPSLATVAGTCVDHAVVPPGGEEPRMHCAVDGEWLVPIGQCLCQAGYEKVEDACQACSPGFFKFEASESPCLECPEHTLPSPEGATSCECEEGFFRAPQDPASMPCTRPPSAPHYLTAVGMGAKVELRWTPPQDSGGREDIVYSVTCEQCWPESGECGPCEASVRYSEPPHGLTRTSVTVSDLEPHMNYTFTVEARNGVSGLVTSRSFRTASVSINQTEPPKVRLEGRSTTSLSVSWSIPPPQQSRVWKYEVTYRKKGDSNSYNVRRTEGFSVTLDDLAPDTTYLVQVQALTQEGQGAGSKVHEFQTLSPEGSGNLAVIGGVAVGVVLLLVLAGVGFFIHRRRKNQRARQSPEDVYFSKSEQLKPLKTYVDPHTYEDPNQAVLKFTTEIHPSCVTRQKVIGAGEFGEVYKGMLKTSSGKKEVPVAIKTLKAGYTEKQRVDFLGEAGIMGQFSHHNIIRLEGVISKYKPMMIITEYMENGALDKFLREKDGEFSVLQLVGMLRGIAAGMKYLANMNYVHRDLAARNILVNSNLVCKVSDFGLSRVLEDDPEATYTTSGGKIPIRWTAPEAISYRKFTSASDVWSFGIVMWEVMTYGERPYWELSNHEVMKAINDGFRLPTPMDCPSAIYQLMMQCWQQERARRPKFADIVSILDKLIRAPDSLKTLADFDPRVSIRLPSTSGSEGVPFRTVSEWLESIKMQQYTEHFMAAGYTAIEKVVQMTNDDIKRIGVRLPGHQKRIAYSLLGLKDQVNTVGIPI

[9] = target: Cyclin-dependent kinase-like 1 (Homo sapiens) (UniProt Q00532); settings: at 10 µM
[10] = target: Phosphatidylinositol 4,5-bisphosphate 3-kinase catalytic subunit gamma isoform (Homo sapiens) (UniProt P48736); test: Selectivity interaction (KinomeScan (DiscoverX)) EUB0001619a PIK3CG; settings: at 1 µM
Sequence of Phosphatidylinositol 4,5-bisphosphate 3-kinase catalytic subunit gamma isoform (Homo sapiens) (P48736 whole entry, looked up, canonical isoform): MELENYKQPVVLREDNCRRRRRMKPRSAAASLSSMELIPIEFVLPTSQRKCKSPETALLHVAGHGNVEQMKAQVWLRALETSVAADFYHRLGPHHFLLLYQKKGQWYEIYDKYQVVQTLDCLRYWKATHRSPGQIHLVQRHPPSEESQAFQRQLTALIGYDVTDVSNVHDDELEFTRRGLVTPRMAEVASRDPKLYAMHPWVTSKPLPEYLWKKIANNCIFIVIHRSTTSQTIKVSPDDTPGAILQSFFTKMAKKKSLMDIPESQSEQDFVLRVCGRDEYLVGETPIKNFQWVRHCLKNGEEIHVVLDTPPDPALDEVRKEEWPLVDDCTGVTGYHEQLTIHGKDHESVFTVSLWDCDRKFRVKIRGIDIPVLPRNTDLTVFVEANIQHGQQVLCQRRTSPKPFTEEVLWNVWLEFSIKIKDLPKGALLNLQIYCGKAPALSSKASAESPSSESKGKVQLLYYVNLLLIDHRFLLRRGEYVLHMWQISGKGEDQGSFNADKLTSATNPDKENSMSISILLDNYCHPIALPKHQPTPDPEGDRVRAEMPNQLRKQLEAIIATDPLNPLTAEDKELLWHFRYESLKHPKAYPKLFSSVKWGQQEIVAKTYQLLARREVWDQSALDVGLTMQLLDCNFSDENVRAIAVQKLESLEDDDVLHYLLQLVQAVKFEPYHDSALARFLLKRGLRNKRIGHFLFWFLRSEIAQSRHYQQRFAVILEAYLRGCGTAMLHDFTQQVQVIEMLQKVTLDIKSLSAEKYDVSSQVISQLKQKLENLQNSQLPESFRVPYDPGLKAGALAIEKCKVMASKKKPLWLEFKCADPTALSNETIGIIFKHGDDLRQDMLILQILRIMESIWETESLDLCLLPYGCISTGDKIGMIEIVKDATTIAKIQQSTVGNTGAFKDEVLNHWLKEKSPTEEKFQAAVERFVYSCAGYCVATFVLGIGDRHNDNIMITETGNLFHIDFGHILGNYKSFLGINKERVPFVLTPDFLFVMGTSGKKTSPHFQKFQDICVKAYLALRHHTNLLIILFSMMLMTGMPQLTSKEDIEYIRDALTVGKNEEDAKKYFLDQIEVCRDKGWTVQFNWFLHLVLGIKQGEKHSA

[11] = target: CDK3/cyclin E (Homo sapiens) (UniProt P24864+O96020+Q00526); test: Selectivity interaction (Upstate Kinase Profiler service (Millipore)) EUB0000056c CDK3; type: protein-complex assay; settings: at 1 µM
[12] = target: T2, Muscle, skeletal receptor tyrosine-protein kinase (Homo sapiens) (UniProt O15146); test: Selectivity interaction (KinomeScan (DiscoverX)) EUB0000655a MUSK; settings: at 10 µM
T2 sequence (whole entry): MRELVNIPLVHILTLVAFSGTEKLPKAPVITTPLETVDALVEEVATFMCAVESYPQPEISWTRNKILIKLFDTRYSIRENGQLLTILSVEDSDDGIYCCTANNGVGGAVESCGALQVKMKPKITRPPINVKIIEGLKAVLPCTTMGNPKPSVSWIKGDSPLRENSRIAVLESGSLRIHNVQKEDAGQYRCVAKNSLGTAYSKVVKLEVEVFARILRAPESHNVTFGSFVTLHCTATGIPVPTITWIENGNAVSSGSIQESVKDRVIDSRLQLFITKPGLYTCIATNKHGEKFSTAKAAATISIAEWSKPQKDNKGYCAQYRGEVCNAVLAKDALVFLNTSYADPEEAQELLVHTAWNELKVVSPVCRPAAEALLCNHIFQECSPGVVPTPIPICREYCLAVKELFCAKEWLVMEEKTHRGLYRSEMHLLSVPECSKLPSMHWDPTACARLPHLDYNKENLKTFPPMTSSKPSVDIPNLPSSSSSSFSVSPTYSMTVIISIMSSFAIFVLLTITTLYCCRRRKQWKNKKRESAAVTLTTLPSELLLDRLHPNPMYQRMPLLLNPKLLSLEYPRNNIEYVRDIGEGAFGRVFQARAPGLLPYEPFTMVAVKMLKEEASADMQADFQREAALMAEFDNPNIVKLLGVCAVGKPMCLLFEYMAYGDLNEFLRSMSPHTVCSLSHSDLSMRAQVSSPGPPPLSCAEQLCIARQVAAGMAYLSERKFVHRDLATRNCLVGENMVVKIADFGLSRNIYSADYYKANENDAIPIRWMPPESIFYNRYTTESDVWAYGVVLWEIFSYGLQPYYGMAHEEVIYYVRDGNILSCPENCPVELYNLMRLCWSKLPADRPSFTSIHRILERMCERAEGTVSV

[13] = target: AP2-associated protein kinase 1 (Homo sapiens, UniProt Q2M2I8); test: Selectivity interaction (KinomeScan (DiscoverX)) EUB0000655a AAK1; settings: at 10 µM
Sequence of AP2-associated protein kinase 1 (Q2M2I8 whole entry, looked up): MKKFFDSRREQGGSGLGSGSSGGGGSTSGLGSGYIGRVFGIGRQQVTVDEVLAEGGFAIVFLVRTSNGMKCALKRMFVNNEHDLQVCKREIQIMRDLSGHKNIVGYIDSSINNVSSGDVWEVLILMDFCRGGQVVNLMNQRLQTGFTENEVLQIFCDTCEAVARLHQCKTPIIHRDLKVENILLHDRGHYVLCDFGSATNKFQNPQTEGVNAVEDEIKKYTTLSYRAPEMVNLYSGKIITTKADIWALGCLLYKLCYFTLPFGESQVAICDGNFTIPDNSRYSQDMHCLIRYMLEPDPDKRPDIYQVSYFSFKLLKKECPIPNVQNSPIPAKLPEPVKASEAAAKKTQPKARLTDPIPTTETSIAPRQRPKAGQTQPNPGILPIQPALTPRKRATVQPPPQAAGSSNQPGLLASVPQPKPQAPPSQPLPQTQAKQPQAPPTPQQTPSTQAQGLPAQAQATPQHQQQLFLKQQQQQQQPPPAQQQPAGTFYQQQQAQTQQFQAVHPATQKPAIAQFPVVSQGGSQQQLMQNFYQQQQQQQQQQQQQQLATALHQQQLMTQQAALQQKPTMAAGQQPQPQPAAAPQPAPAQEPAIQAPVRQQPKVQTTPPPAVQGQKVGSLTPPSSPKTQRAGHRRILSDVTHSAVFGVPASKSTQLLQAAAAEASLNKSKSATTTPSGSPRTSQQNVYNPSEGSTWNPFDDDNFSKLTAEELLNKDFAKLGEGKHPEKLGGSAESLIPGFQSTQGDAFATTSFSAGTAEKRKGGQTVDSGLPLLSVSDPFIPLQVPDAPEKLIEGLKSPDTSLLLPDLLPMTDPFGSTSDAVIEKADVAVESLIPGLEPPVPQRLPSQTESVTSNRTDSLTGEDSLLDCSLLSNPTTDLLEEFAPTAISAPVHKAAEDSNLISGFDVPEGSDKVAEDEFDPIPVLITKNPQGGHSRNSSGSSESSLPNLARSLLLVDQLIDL

[14] = target: Protein kinase C theta type (Homo sapiens, UniProt Q04759); test: Selectivity interaction (KinomeScan (DiscoverX)) EUB0000695a PRKCQ; settings: at 100 nM
Sequence of Protein kinase C theta type (Q04759 whole entry, looked up): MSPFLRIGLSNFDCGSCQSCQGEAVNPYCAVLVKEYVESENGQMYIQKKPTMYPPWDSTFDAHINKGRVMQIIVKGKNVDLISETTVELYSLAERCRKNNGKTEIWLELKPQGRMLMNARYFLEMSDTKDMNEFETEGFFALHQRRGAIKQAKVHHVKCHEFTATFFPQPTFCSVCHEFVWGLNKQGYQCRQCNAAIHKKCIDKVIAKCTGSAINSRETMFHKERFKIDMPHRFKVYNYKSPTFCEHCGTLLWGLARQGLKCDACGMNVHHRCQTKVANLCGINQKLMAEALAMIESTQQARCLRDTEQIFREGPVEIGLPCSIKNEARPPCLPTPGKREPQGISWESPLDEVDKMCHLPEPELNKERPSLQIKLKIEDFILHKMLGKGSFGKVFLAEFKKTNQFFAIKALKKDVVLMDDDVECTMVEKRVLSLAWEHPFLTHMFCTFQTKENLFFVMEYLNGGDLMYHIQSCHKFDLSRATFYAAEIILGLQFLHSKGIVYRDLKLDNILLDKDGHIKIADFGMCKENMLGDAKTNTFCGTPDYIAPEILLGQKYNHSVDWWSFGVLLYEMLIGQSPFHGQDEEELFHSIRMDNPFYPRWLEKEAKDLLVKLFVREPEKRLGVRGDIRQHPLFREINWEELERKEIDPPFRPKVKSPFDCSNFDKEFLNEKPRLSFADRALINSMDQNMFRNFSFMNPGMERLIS

[15] = target: Leucine-rich repeat serine/threonine-protein kinase 2 (Homo sapiens, UniProt Q5S007); test: (§1) Selectivity interaction (KinomeScan (DiscoverX)) EUB0000695a LRRK2; settings: at 100 nM
[16] = system: Leucine-rich repeat serine/threonine-protein kinase 2 (Homo sapiens), Q5S007 [G2019S]; test: as §1; settings: at 100 nM
[17] = target: Fibroblast growth factor receptor 2 (Homo sapiens) (UniProt P21802); test: Selectivity interaction (KinomeScan (DiscoverX)) EUB0000607a FGFR2; settings: at 10 µM
[18] = target: Serine/threonine-protein kinase PRP4 homolog (Homo sapiens) (UniProt Q13523); test: Selectivity interaction (KinomeScan (DiscoverX)) EUB0000607a PRPF4; settings: at 10 µM

In the case of `CC(=O)Nc1cccc(-n2c(=O)n(C3CC3)c(=O)c3c(Nc4ccc(I)cc4F)n(C)c(=O)c(C)c32)c1`, the % of control [1] is reported as 98%.
Work on `COc1cc(N(C)c2ccnc3ccc(C(F)(F)F)cc23)cc(OC)c1OC` yielded a % binding [2] of 93% and a % binding [3] of 100%.
`Nc1cnc(N2CCc3cc(S(=O)(=O)Nc4c(F)cc(Cl)cc4F)cc(N4CCCC4=O)c32)nc1` [TP-020n] gave a % of control [4] of 100%.
Work on `CC[C@@H]1[C@H](F)C(=O)N[C@@H]1COc1nccc2cc(C(N)=O)c(OC)cc12` [ZIMLOVISERTIB] yielded a % of inhibition [5] of 16.3% and a % of inhibition [6] of 9.07%.
For `COCC(=O)NC/C=C/c1ccc2ncnc(Nc3ccc(Oc4ccc(C)nc4)c(C)c3)c2c1` [CP-724714], the % of control [7] was 97%.
In the case of `C=CC(=O)Nc1cc(-n2c(=O)ccc3cnc4ccc(-c5ccc(NS(C)(=O)=O)cc5)cc4c32)ccc1C`, the % of control ([8]; at 1 µM) is reported as 100% and the % of control ([8]; at 10 µM) is reported as 100%.
`Cc1cc([C@@H](C)Nc2ccccc2C(=O)O)c2nc(N3CCOCC3)cc(=O)n2c1` [AZD-6482] showed a % of control [9] of 100%.
`N#Cc1cccc(-c2c[nH]c3ncnc(N4CCOCC4)c23)c1` showed a % of control [10] of 79%.
`Cc1ccc(-c2ccc3c(ccc4sc5c(c43)NC[C@@H](C)NC5=O)n2)cn1` was tested, and the % of inhibition [11] was 5%.
Work on `CN(C)CCOc1ccc(-c2nc(-c3ccncc3)c(-c3ccc4c(c3)CC/C4=N\O)[nH]2)cc1` yielded a % of control [12] of 98% and a % of control [13] of 76%.
Work on `Cc1cc(F)c(C(=O)Nc2cccc(-c3nncn3C(C)C)n2)cc1-n1cnc(C2CC2)c1` yielded a % of control [14] of 75%, a % of control [15] of 18% and a % of control [16] of 39%.
In the case of `CNC(=O)Nc1ccc(-c2nc(N3CC4CCC(C3)O4)c3cnn(C4CCC5(CC4)OCCO5)c3n2)cc1`, the % of control [17] is reported as 92% and the % of control [18] is reported as 70%.
